According to PubChem BioAssay AID250 (DTP/NCI, 2004):
Several values for one entry are separate records, joined by “and”; a condition that tells them apart may be missing. Equal entries are not always repeated. Inconclusive results and toxic doses are left out.

Test system: BDF1 mice, L1210 leukemia sc, survival T/C
Assay: NCI In Vivo Anticancer Drug Screen. Data for tumor model L1210 Leukemia (subcutaneous) in B6D2F1 (BDF1) mice
Details: endpoint: median survival time, higher = longer survival
Experimental: The antitumor activity of compounds was measured in mice bearing transplantable tumors. Survival or tumor size were measured and the results are expressed as the measurement made in the treated group (T) divided by the measurement made in the vehicle treated control group (C). The tumor model used in this assay is L1210 Leukemia (subcutaneous) in B6D2F1 (BDF1) mice

[1] = dose: 14.0 mg/kg/injection, schedule: Q01DX Z (sc), vehicle: saline
[2] = dose: 23.0 mg/kg/injection, schedule: Q01DX Z (sc), vehicle: saline
[3] = dose: 39.0 mg/kg/injection, schedule: Q01DX Z (sc), vehicle: saline
[4] = dose: 65.0 mg/kg/injection, schedule: Q01DX Z (sc), vehicle: saline
[5] = dose: 108.0 mg/kg/injection, schedule: Q01DX Z (sc), vehicle: saline
[6] = dose: 180.0 mg/kg/injection, schedule: Q01DX Z (sc), vehicle: saline
[7] = dose: 39.0 mg/kg/injection, schedule: Q01DX Z (sc), vehicle: methylcellulose (MC)
[8] = dose: 65.0 mg/kg/injection, schedule: Q01DX Z (sc), vehicle: methylcellulose (MC)
[9] = dose: 108.0 mg/kg/injection, schedule: Q01DX Z (sc), vehicle: methylcellulose (MC)
[10] = dose: 180.0 mg/kg/injection, schedule: Q01DX Z (sc), vehicle: methylcellulose (MC)
[11] = dose: 300.0 mg/kg/injection, schedule: Q01DX Z (sc), vehicle: methylcellulose (MC)
[12] = dose: 500.0 mg/kg/injection, schedule: Q01DX Z (sc), vehicle: methylcellulose (MC)
[13] = dose: 14.0 mg/kg/injection, schedule: Q01DX Z (sc), vehicle: methylcellulose (MC)

With `O=c1[nH]c(=O)n(C2CC(O)C(CO)O2)cc1I` (centres undefined) the T/C [1] was 100 % of control, the T/C [2] was 100 % of control and the T/C [3] was 106 % of control. For the same compound, the T/C [4] was 103 % of control, the T/C [5] was 103 % of control and the T/C [6] was 100 % of control.
For `CC(=O)[C@@]1(O)CC[C@H]2[C@@H]3C[C@H](C)C4=CC(=O)C=C[C@]4(C)[C@@]3(F)[C@@H](O)C[C@@]21C`, the T/C [7] was 111 % of control, the T/C [8] was 105 % of control and the T/C [9] was 111 % of control. For the same compound, the T/C [10] was 111 % of control, the T/C [11] was 111 % of control and the T/C [12] was 100 % of control.
`CCCC(=O)NC1=C(N2CC2)C(=O)C(NC(=O)CCC)=C(N2CC2)C1=O` was tested, and the T/C (dose: 1.8 mg/kg/injection, schedule: Q01DX Z (sc), vehicle: saline) was 100 % of control, the T/C (dose: 3.0 mg/kg/injection, schedule: Q01DX Z (sc), vehicle: saline) was 111 % of control and the T/C (dose: 8.4 mg/kg/injection, schedule: Q01DX Z (sc), vehicle: saline) was 183 % of control. For the same compound, the T/C [1] was 150 % of control and the T/C [2] was 122 % of control.
For `CCCCCCOP(=O)(N1CC1)N1CC1`, the T/C (dose: 0.65 mg/kg/injection, schedule: Q01DX Z (sc), vehicle: saline) was 100 % of control and 110 % of control, the T/C (dose: 1.08 mg/kg/injection, schedule: Q01DX Z (sc), vehicle: saline) was 104 % of control and 110 % of control (2×) and the T/C (dose: 23.0 mg/kg/injection, schedule: Q01DX001 (sc), vehicle: saline) was 150 % of control. The T/C (dose: 23.0 mg/kg/injection, schedule: Q## X Z (sc), vehicle: saline) was 170 % of control, the T/C (dose: 39.0 mg/kg/injection, schedule: Q01DX001 (sc), vehicle: saline) was 150 % of control and the T/C (dose: 39.0 mg/kg/injection, schedule: Q## X Z (sc), vehicle: saline) was 220 % of control. The T/C (dose: 65.0 mg/kg/injection, schedule: Q01DX001 (sc), vehicle: saline) was 170 % of control, the T/C (dose: 65.0 mg/kg/injection, schedule: Q## X Z (sc), vehicle: saline) was 160 % of control and the T/C (dose: 108.0 mg/kg/injection, schedule: Q01DX001 (sc), vehicle: saline) was 160 % of control. For the same compound, the T/C (dose: 108.0 mg/kg/injection, schedule: Q## X Z (sc), vehicle: saline) was 150 % of control and the T/C (dose: 180.0 mg/kg/injection, schedule: Q01DX001 (sc), vehicle: saline) was 150 % of control.
In the case of `ClCCN(CCCl)c1ccc(CCNc2ccnc3cc(Cl)ccc23)cc1`, the T/C [13] is reported as 100 % of control and the T/C [8] is reported as 100 % of control.
`O=C(NC(CO)C(=O)O)C(Cl)Cl` (centres undefined) was tested, and the T/C (dose: 138.8 mg/kg/injection, schedule: Q01DX Z (sc), vehicle: water) was 100 % of control, the T/C (dose: 300.0 mg/kg/injection, schedule: Q01DX Z (sc), vehicle: water) was 100 % of control and the T/C (dose: 500.0 mg/kg/injection, schedule: Q01DX Z (sc), vehicle: water) was 100 % of control.
With `CCc1nc(N)nc(N)c1-c1ccc(Cl)cc1` the T/C [9] was 118 % of control.
For `CCN(CC)CCNC(=O)N(Cc1ccccc1)c1ccccc1`, the T/C (dose: 22.0 mg/kg/injection, schedule: Q01DX Z (sc), vehicle: methylcellulose (MC)) was 100 % of control, the T/C (dose: 37.0 mg/kg/injection, schedule: Q01DX Z (sc), vehicle: methylcellulose (MC)) was 100 % of control and the T/C (dose: 62.0 mg/kg/injection, schedule: Q01DX Z (sc), vehicle: methylcellulose (MC)) was 100 % of control. For the same compound, the T/C (dose: 104.0 mg/kg/injection, schedule: Q01DX Z (sc), vehicle: methylcellulose (MC)) was 100 % of control, the T/C (dose: 173.0 mg/kg/injection, schedule: Q01DX Z (sc), vehicle: methylcellulose (MC)) was 100 % of control and the T/C (dose: 288.0 mg/kg/injection, schedule: Q01DX Z (sc), vehicle: methylcellulose (MC)) was 100 % of control. The T/C (dose: 480.0 mg/kg/injection, schedule: Q01DX Z (sc), vehicle: methylcellulose (MC)) was 100 % of control and the T/C (dose: 800.0 mg/kg/injection, schedule: Q01DX Z (sc), vehicle: methylcellulose (MC)) was 100 % of control.
In the case of `CCC1=C(c2ccc(OC)cc2)CCC(C(=O)O)C1C` (centres undefined), the T/C (dose: 14.0 mg/kg/injection, schedule: Q01DX Z (sc), vehicle: steriod suspending solution) is reported as 105 % of control, the T/C (dose: 23.0 mg/kg/injection, schedule: Q01DX Z (sc), vehicle: steriod suspending solution) is reported as 100 % of control and the T/C (dose: 39.0 mg/kg/injection, schedule: Q01DX Z (sc), vehicle: steriod suspending solution) is reported as 105 % of control. For the same compound, the T/C (dose: 65.0 mg/kg/injection, schedule: Q01DX Z (sc), vehicle: steriod suspending solution) was 100 % of control, the T/C (dose: 108.0 mg/kg/injection, schedule: Q01DX Z (sc), vehicle: steriod suspending solution) was 100 % of control and 111 % of control and the T/C (dose: 180.0 mg/kg/injection, schedule: Q01DX Z (sc), vehicle: steriod suspending solution) was 100 % of control and 105 % of control. For the same compound, the T/C (dose: 300.0 mg/kg/injection, schedule: Q01DX Z (sc), vehicle: steriod suspending solution) was 100 % of control and 111 % of control, the T/C (dose: 500.0 mg/kg/injection, schedule: Q01DX Z (sc), vehicle: steriod suspending solution) was 111 % of control and the T/C (dose: 833.0 mg/kg/injection, schedule: Q01DX Z (sc), vehicle: steriod suspending solution) was 100 % of control.
With `CCOC(=O)C(N)Cc1ccc(N(CCCl)CCCl)cc1` (centres undefined) the T/C [2] was 110 % of control and 119 % of control, the T/C [3] was 104 % of control and 110 % of control and the T/C [4] was 100 % of control and 104 % of control. The T/C [5] was 90 % of control.
`C[n+]1ccc(Nc2ccc(NC(=O)c3ccc(Nc4cc[n+](C)c5ccc(N)cc45)cc3)cc2)cc1` was tested, and the T/C (dose: 0.5 mg/kg/injection, schedule: Q01DX009 (ip), vehicle: Klucel (hydroxypropylcellulose) (HPC)) was 100 % of control, the T/C (dose: 1.0 mg/kg/injection, schedule: Q01DX009 (ip), vehicle: Klucel (hydroxypropylcellulose) (HPC)) was 110 % of control and the T/C (dose: 2.0 mg/kg/injection, schedule: Q01DX009 (ip), vehicle: Klucel (hydroxypropylcellulose) (HPC)) was 182 % of control. For the same compound, the T/C (dose: 4.0 mg/kg/injection, schedule: Q01DX009 (ip), vehicle: Klucel (hydroxypropylcellulose) (HPC)) was 250 % of control and the T/C (dose: 8.0 mg/kg/injection, schedule: Q01DX009 (ip), vehicle: Klucel (hydroxypropylcellulose) (HPC)) was 291 % of control.
With `CS(=O)(=O)OCC(O)C(O)C(O)C(O)COS(C)(=O)=O` (centres undefined) the T/C (dose: 8.4 mg/kg/injection, schedule: Q01DX Z (sc), vehicle: methylcellulose (MC)) was 103 % of control, the T/C [13] was 100 % of control and the T/C (dose: 23.0 mg/kg/injection, schedule: Q01DX Z (sc), vehicle: methylcellulose (MC)) was 96 % of control. For the same compound, the T/C [7] was 100 % of control, the T/C [8] was 100 % of control and the T/C [9] was 100 % of control. For the same compound, the T/C [10] was 103 % of control, the T/C [11] was 107 % of control and the T/C [12] was 103 % of control.
For `O=C(Nc1ccc(C2=NCCN2)cc1)c1ccc(NC(=O)c2ccc(C3=NCCN3)cc2)cc1`, the T/C [7] was 95 % of control, the T/C [10] was 115 % of control and the T/C [11] was 110 % of control.
`Cc1cc(N)c2cc(NC(=O)CCCCCCCCC(=O)Nc3ccc4nc(C)cc(N)c4c3)ccc2n1` was tested, and the T/C [4] was 91 % of control, the T/C [5] was 91 % of control and the T/C (dose: 130.0 mg/kg/injection, schedule: Q01DX Z (sc), vehicle: saline) was 91 % of control. The T/C [6] was 91 % of control, the T/C (dose: 216.0 mg/kg/injection, schedule: Q01DX Z (sc), vehicle: saline) was 91 % of control and the T/C (dose: 300.0 mg/kg/injection, schedule: Q01DX Z (sc), vehicle: saline) was 91 % of control. For the same compound, the T/C (dose: 360.0 mg/kg/injection, schedule: Q01DX Z (sc), vehicle: saline) was 91 % of control, the T/C (dose: 500.0 mg/kg/injection, schedule: Q01DX Z (sc), vehicle: saline) was 95 % of control and the T/C (dose: 600.0 mg/kg/injection, schedule: Q01DX Z (sc), vehicle: saline) was 91 % of control. The T/C (dose: 1000.0 mg/kg/injection, schedule: Q01DX Z (sc), vehicle: saline) was 95 % of control.
In the case of `O=NN(CCCl)C(=O)NC1CC2CCC1C2` (centres undefined), the T/C (dose: 23.0 mg/kg/injection, schedule: Q01DX Z (oral), vehicle: carboxymethylcellulose (CMC)) is reported as 305 % of control, the T/C (dose: 23.0 mg/kg/injection, schedule: Q01DX Z (sc), vehicle: carboxymethylcellulose (CMC)) is reported as 321 % of control and the T/C (dose: 39.0 mg/kg/injection, schedule: Q01DX Z (oral), vehicle: carboxymethylcellulose (CMC)) is reported as 542 % of control. The T/C (dose: 39.0 mg/kg/injection, schedule: Q01DX Z (sc), vehicle: carboxymethylcellulose (CMC)) was 500 % of control, the T/C (dose: 65.0 mg/kg/injection, schedule: Q01DX Z (oral), vehicle: carboxymethylcellulose (CMC)) was 236 % of control and the T/C (dose: 65.0 mg/kg/injection, schedule: Q01DX Z (sc), vehicle: carboxymethylcellulose (CMC)) was 289 % of control. For the same compound, the T/C (dose: 108.0 mg/kg/injection, schedule: Q01DX Z (oral), vehicle: carboxymethylcellulose (CMC)) was 178 % of control.
